Measurements reported in US20060166236A1, “Allosteric enzyme coupled immunoassay (AECIA)” (priority 2004, published 2006).
pEC50: −log10 of the molar value.

What was measured:
[1] = biological target: T1, potato tuber PPi-PFK (pyrophosphate-dependent fructose-6-phosphate kinase, EC2.7.1.90) (Solanum tuberosum, UniProt P21342+P21343); test: Stimulation assay of potato tuber PPi-PFK by Fructose 2,6 Pi; format: biochemical; conditions: in the presence of 1 mM fructose 6-phosphate and 2.5 mM PPi; FIG. 3; read-out: half-maximal effect (activation of potato tuber PPi-PFK)
T1 construct: Peeled potato tubers (330 g) were homogenized in a blendor; from tissue; host or cells: potato tubers
T1 sequence (P21342 1-616): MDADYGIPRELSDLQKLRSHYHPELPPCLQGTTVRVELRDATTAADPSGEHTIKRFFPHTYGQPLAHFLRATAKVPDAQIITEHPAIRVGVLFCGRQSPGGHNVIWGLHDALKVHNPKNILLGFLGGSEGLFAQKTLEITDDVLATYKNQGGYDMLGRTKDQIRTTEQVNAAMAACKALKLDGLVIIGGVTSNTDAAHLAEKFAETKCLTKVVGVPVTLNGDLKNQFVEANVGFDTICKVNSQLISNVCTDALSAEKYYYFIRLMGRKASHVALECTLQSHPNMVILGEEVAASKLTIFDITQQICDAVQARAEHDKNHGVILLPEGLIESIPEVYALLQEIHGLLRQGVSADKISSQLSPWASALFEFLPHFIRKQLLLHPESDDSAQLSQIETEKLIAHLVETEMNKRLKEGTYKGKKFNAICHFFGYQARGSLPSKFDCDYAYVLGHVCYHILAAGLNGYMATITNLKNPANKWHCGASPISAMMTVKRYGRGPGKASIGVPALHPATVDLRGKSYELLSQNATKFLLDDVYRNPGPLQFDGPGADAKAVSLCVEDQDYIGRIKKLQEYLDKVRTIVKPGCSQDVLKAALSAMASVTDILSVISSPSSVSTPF
T1 sequence (P21343 1-569): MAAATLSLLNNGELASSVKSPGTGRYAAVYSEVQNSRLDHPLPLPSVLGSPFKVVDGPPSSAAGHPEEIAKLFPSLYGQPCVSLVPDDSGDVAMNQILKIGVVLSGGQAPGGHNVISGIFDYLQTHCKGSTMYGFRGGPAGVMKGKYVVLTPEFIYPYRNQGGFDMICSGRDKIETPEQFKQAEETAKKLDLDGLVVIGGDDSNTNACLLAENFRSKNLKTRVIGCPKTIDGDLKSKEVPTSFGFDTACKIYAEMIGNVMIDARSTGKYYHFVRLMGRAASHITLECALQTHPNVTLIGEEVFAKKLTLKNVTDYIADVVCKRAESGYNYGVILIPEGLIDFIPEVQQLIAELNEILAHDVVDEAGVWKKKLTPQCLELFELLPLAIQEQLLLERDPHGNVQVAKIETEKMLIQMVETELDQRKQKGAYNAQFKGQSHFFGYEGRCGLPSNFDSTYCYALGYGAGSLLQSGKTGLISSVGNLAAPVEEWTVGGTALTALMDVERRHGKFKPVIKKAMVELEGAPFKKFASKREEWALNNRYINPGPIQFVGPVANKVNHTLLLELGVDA
Experimental: Potato tubers PPi-PFK was purified according to the procedure described in Van Schafingen et al., Eur. J. Biochem., 129:191-195 (1982). Peeled potato tubers (330 g) were homogenized in a blendor with 2 volume of ice-cold 20 mM Hepes pH8.2 containing 20 mM potassium acetate and 2 mM dithiothreitol. The homogenate was filtered through cheese cloth. Solid sodium pyrophosphate and 1 mM MgCl2 were added to the filtrate to reach 2 mM and the pH was adjusted to 8.2 at 0° C. The mixture was brought to 59° C. by shaking in a water bath adjusted to 70° C. and maintained for 5 min in a water bath at 59° C.; it was then cooled and brought to pH 7.1 at 0° C. All subsequent steps were carried out at 0-4° C. Six (6) g of poly(ethylene glycol) 6000 were added per 100 ml of solution and after mixing for 15 min, the preparation was allowed to stand for 10 min and then centrifuged for 10 min at 4000×g; 8 g of poly(ethylene glycol) were then added per 100 ml of the resulting supernatant (700 ml) which was mixed and centrifuged as described above. The resulting pellet was dissolved in 40 ml of a solution containing 20 mM Tris, pH8.2, 20 mM KCl, and 2 mM dithiothreitol and applied to a column (25×120 mm) of DEAE-cellulose equilibrated with the same buffer. The column was washed with 100 ml of buffer and developed with a gradient of KCl (20-400 mM) in the same dithiothreitol/Tris buffer. […]

[2] = biological target: T2, rat liver PFK (ATP-dependent fructose-6-phosphate kinase, EC2.7.1.11) (Rattus norvegicus, UniProt P30835); test: Stimulation assay of rat liver phosphofructokinase by Fructose 2,6 Pi; format: biochemical; conditions: in the presence of 2 mM fructose 6-phosphate and 1 mM AMP; pH 7.1, 22° C.; 3 mM ATP; FIG. 4; read-out: half-maximal effect (activation of rat liver PFK)
T2 construct: Fresh livers from rats were homogenized in a homogenizer with 3 volumes of chilled buffer; from tissue; host or cells: rat liver
T2 sequence (P30835 1-780): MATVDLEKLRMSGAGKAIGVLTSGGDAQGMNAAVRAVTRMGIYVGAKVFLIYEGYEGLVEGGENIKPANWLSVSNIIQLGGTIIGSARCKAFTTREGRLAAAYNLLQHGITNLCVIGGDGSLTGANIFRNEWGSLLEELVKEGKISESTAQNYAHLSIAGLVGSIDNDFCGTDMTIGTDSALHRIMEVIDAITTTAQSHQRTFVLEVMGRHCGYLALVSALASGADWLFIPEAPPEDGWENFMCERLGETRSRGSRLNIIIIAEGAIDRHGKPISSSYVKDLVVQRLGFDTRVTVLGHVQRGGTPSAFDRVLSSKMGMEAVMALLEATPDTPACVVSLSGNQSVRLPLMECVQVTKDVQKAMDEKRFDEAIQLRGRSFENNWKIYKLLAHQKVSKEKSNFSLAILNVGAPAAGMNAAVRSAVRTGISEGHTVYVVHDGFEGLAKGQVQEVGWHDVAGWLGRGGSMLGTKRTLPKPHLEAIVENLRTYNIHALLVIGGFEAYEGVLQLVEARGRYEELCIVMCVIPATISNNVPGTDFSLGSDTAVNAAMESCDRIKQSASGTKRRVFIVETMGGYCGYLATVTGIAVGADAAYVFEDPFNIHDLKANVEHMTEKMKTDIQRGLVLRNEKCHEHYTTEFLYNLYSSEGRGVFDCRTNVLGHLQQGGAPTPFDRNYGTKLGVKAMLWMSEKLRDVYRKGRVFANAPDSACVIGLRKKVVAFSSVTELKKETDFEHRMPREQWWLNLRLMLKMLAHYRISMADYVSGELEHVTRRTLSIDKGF
Experimental: ATP-dependent fructose-6-phosphate kinase (EC2.7.1.11) was purified from rat livers according to the procedures described in Reinhart and Lardy., Biochemistry, 19:1477-1484 (1980). The purification procedure includes a heat step, ammonium sulfate precipitation, and DEAE ion-exchange and gel filtration chromatography as follows:
The assay was performed at pH 7.1 and 22° C. The incubation mixture contained 100 mM KCl, 1 mM NH4Cl, 0.15 mM NADH, 50 mM Hepes buffer, 50 μg/ml aldolase, 10 μg/ml glycerol-3-phosphate dehydrogenase, 1 μg/ml triose phosphate isomerase, 5 mM MgCl2, 1 mM AMP, 2 mM fructose 6-phosphate, and 0.2 mM Pi. The reaction was initiated by adding 3 mM ATP.

O=P(O)(O)OCC1OC(CO)(OP(=O)(O)O)C(O)C1O (centres unmarked) [fructose 2, 6 Pi, fructose-2,6-bisphosphate]
pEC50 [1]: ~8.26
pEC50 [2]: ~7.40
